Experimental data taken from patent US12644886B2, “Biosensor microarray compositions and methods” (Arizona Board of Regents on Behalf of Arizona State …, priority 2013, dated 2026).
One block for each molecule: values may come before it.

Biological target: Src kinase (Homo sapiens, UniProt P12931)
Assay: FET biosensor detection of Src kinase auto-phosphorylation (phosphokinase activity)
Assay type: biochemical
Text: FIG. 6 FET Biosensor detection of phosphokinase activity.
In some embodiments the biosensor microarray is used to quantify kinetic rates of interaction between one or more analytes in a test sample and the corresponding detector polypeptides. In other embodiments, the biosensor microarray is used to assess inhibition of a protein activity or a protein-protein interaction. For example, where the detector polypeptide is a protein kinase substrate or a kinase with autophosphorylation activity, phosphokinase activity can be detected in the presence or absence of a known or putative inhibitor of the specific phosphokinase activity (see, e.g. FIGS. 6-7). […] Further, where increased kinase phosphorylation is associated with a particular disease state, the kinase activity of particular biological samples can be assessed by contacting a biosensor microarray described herein with the relevant biological sample and detecting phosphorylation of one or more detector polypeptides. Protein kinases are important targets in a number of health condition, e.g., cancer, pulmonary hypertension, diabetes, Alzheimer's, Parkinson's, CNS diseases, macular degeneration, Idiopathic pulmonary fibrosis, systemic sclerosis, rheumatoid disorders, among other diseases, allowing discovery of kinase inhibitor drugs and applying kinase functional screening as disease diagnostics

Src kinase, sequence (P12931 whole entry): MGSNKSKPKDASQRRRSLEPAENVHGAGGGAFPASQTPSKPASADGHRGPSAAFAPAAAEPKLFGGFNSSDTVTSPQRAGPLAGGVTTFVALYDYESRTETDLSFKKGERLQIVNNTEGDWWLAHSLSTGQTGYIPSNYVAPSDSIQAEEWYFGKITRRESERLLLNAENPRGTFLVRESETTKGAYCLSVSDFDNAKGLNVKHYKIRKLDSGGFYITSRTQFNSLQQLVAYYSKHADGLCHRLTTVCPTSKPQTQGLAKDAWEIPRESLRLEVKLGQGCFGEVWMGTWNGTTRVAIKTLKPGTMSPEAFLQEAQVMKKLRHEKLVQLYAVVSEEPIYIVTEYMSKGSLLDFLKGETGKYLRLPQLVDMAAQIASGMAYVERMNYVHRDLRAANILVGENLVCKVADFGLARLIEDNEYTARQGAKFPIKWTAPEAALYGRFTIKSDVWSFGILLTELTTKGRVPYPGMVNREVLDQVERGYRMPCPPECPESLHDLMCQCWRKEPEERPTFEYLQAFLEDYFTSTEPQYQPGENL

FDEC FET sensor response to Src kinase auto-phosphorylation upon addition (addition of ADP instead of ATP): no response
SMILES: Nc1ncnc2c1ncn2[C@@H]1O[C@H](COP(=O)(O)OP(=O)(O)O)[C@@H](O)[C@H]1O [ADP]

threshold voltage response (FDEC FET response to Src kinase auto-phosphorylation by detecting H+) (upon addition of 10 mM ATP): 200 mV
SMILES: Nc1ncnc2c1ncn2[C@@H]1O[C@H](COP(=O)(O)OP(=O)(O)OP(=O)(O)O)[C@@H](O)[C@H]1O [ATP]

SMILES: CN[C@@H]1C[C@H]2O[C@@](C)([C@@H]1OC)n1c3ccccc3c3c4c(c5c6ccccc6n2c5c31)C(=O)NC4 [Staurosporine]
Src kinase inhibition (real time detection of Src kinase autophosphorylation) (2 μM staurosporine, FET-based biosensor microarray): inhibition
